# Like-named read-outs stand apart in the source and are kept apart here.
# Columns and labels:
# [1] = system: wheat plants; assay: Spray of chemicals in combinations and as individual molecules on wheat plants (Table 3); assay type: in vivo
# Description: The effects of the composition with varied concentration of compound 1 and 2 were evaluated for two crops years. The aqueous solution of the compositions were sprayed on the wheat plants when the Spike length of 7-12 mm. i.e. growth of 20-22 of Zadoks scale, reached between 40-50 days after germination.
# In a future of the present invention the calculation of male/female sterility is based on number of seeds and is done as per formula given below:
# Male Sterility (%)=(Untreated Control−Bagged Spikes×100/Untreated Control
# Female Sterility (%)=(Untreated Control−Bagged Spikes)×100/Untreated Control
# The chemical formulation can be used at a rate of 1.8 kg/ha or below (following male: female ratio of 1:2) depending upon genotypes used, date of planting and growth stage. The female lines were sprayed with the chemical combination at the appropriate growth stage and concentration. The spike of 7-12 mm i.e. growth stage 20-22 of Zadoks scale (Zadoks J V, Chang T T and Konzak C F 1974. Weed Research 14: 415421) was ideal for generating effective male sterility in spring wheat. This stage is reached between 40-50 days after germination at optimum time of sowing in most of the genotypes. The date of spray varied depending upon the genotype used. A high volume spray pump may be used so as to cover the complete female plant.
# [2] = system: wheat; design: Effective dose: unit not given beside the values; conditions: cited from earlier work; for Female sterility / Germination (%) / Max. seed shriveling (Scale 1-5) / Seed setting: at effective dose; for Female sterility / Germination (%) / Max. seed shriveling (Scale 1-5) / Seed setting / Effective dose: 7-8 mm spike length; for Effective dose: minimum effective dose for complete male sterility
# [3] = system: wheat; conditions: cited from earlier work
# [4] = at minimum effective dose for complete male sterility
# [5] = wheat, side effects on plant and seed
structure (smiles),measurement,setting,value
"Cc1cc(=O)c(C(=O)[O-])nn1-c1ccc(Cl)cc1.[K+] [CH9701, potassium 1-[4-chlorophenyl]-1,4 dihydro-6-methyl-4-oxopyridazine-3-carboxylate]",Female sterility,[1],high female sterility
same,damage to florets,[1],damage to florets
same,male sterility,[1],complete male sterility
same,seed set,[1],low seed set
same,female sterility (CH9701 compared with CH9832),[2]; [4],higher
same,seed germination (CH9701 compared with CH9832),[2]; [4],comparable
same,seed shriveling (CH9701 compared with CH9832),[2]; [4],higher
same,Female sterility,[2]; variety PBW343,88.3
same,Germination (%),[2]; variety PBW343,95%
same,Max. seed shriveling (Scale 1-5),[2]; variety PBW343,3
same,Seed setting,[2]; variety PBW343,20.0
same,Effective dose,[2]; variety PBW343,500
same,Female sterility,[2]; variety WH542,90.7
same,Germination (%),[2]; variety WH542,85%
same,Max. seed shriveling (Scale 1-5),[2]; variety WH542,2
same,Seed setting,[2]; variety WH542,56.7
same,Effective dose,[2]; variety WH542,250
"Cc1cc(=O)c(C(=O)[O-])nn1-c1ccc(F)c(Cl)c1.[K+] [CH9832, potassium 1-[4-fluoro, 3-chlorophenyl]-1,4 dihydro6-methyl-4-oxopyridazine-3-carboxylate]",Female sterility,[1],low female sterility
same,damage to florets,[1],no damage to florets
same,male sterility,[1],complete male sterility
same,seed set,[1],low seed set
same,seed germination (CH9701 compared with CH9832),[2]; [4],comparable
same,seed setting (CH9832 compared with CH9701),[2]; [4],numerically higher
same,Female sterility,[2]; variety PBW343,40.2
same,Germination (%),[2]; variety PBW343,90%
same,Max. seed shriveling (Scale 1-5),[2]; variety PBW343,2
same,Seed setting,[2]; variety PBW343,49.0
same,Effective dose,[2]; variety PBW343,500
same,Female sterility,[2]; variety WH542,10.7
same,Germination (%),[2]; variety WH542,65%
same,Max. seed shriveling (Scale 1-5),[2]; variety WH542,2
same,Seed setting,[2]; variety WH542,65.5
same,Effective dose,[2]; variety WH542,500
COc1nc(=O)n(-c2ccc(Cl)cc2)c(=O)[nH]1.OCCN(CCO)CCO [DPX 3778],Sterility (optimum treatment) Female,"[3]; wheat, optimum treatment",Sight
same,Sterility (optimum treatment) Male,"[3]; wheat, optimum treatment",High
same,Remarks,[3]; [5],"Shorter plant, leaf"
CC(Cl)(Cl)C(=O)O [Dalapon],Sterility (optimum treatment) Female,"[3]; wheat, optimum treatment",Severe
same,Sterility (optimum treatment) Male,"[3]; wheat, optimum treatment",Partial
same,Remarks,[3]; [5],Severe plant damage
O=P(O)(O)CCCl [Ethephon],Sterility (optimum treatment) Female,"[3]; wheat, optimum treatment",Significant
same,Sterility (optimum treatment) Male,"[3]; wheat, optimum treatment",High
same,Remarks,[3]; [5],Height and seed size
C=C1C[C@]23C[C@@]1(O)CC[C@H]2[C@@]12C=C[C@H](O)[C@@](C)(C(=O)O1)[C@H]2[C@@H]3C(=O)O [Gibberellic acid],Sterility (optimum treatment) Male,"[3]; wheat, optimum treatment",Poor
Cc1cc(=O)c(C(=O)[O-])nn1-c1ccc(Cl)cc1.[K+] [Hybrex],Remarks,[3]; in vivo,Risk of damage
same,Sterility (optimum treatment) Female,[3]; in vivo,Slight
same,Sterility (optimum treatment) Male,"[3]; wheat, optimum treatment",High
CC(Cl)(CCl)C(=O)[O-].[Na+] (stereo not shown) [Mendok],Remarks,[3]; in vivo,"Severe plant damage,"
same,Sterility (optimum treatment) Female,[3]; in vivo,Significant
same,Sterility (optimum treatment) Male,"[3]; wheat, optimum treatment",Poor
Cc1cc(C)n(-c2ccc(Cl)cc2)c(=O)c1C(=O)[O-].[Na+] [RH-531],Sterility (optimum treatment) Female,"[3]; wheat, optimum treatment",Significant
same,Sterility (optimum treatment) Male,"[3]; wheat, optimum treatment",High
same,Remarks,[3]; [5],Inhibit veg. Growth
O=C(O)C1CNC1 [WL 84811],Sterility (optimum treatment) Female,"[3]; wheat, optimum treatment",Very
same,Sterility (optimum treatment) Male,"[3]; wheat, optimum treatment",Nearly
same,Remarks,[3]; [5],Toxic residues in F1

# Source: US6645917B2, “Composition for hybrid seed production, process for the preparation of such composition and use thereof” (Council of Scientific and Industrial Research, priority 2002, dated 2003)
